This is an account of results in US4837342A, “Prostacyclin analogue, and blood circulation improving agent and anti-ulcer composition containing it as active ingredient” (Sagami Chemical Research Center, priority 1986, dated 1989).

Several values for one entry are separate records, joined by “and”; a condition that tells them apart may be missing. Equal entries are not always repeated.

Data set [1] relates to Blood platelet (ADP agglutination). Description: Blood platelet agglutination inhibiting activity (ADP-induced), washed rabbit platelet suspension. It counts as cell-based, rabbit (Japanese white male rabbits). Conditions: for IC50: Oryctolagus cuniculus, Platelet, ADP 10 μM, concentration suppressing agglutination to 50%, read-out: Platelet agglutination inhibiting activity ED50, ADP agglutination; for Activity ratio, platelet agglutination inhibiting activity, ADP agglutination: relative to prostacyclin = 1. The protocol: (§1) Blood platelet aggutination inhibiting activity
(§2) Japanese white male rabbits having a weight of from 2.0 to 2.5 kg were used.
(§3) Under anesthesia with sodium Pentobarbital, blood was sampled from the carotid artery, and mixed with a 1/7 volume of an anticoagulant citric acid dextrose solution. Then, the mixture was subjected to centrifugal separation at 140×g for 15 minutes, whereupon the supernatant (platelet rich plasma:PRP) was obtained. PRP was subjected to centrifugal separation at 1,300×g for 7 minutes. The blood platelet pellets thus obtained were washed with a HEPES buffer solution (pH 6.5) for washing blood platelets, and subjected to centrifugal separation at 1,300×g for 7 minutes. The blood platelet pellets washed twice under such condition, were suspended in a suspending liquid (a buffer solution for washing blood platelets, which contains 0.1% of human fibrinogen, 1.8 mM of CaCl2 and 1.2 mM of MgCl2) to obtain a blood platelet suspension having a concentration of from 5×10^8 to 8×10^8 platelets/ml.
(§4) The platelet agglutination ability was measured by means of an agglutination meter. To 380 μl of the platelet suspension, 10 μl of a test compound or a solvent as the control, was added. Three minutes later, 10 μl of a platelet agglutinating substance (10 μM of ADP or 1 μg/ml of collagen, as the final concentration) was added thereto to induce agglutination.
(§5) The blood platelet agglutination inhibiting activity of each test compound was represented by ED50 (i.e. the concentration of the test compound where the platelet agglutination is suppressed to 50%).

Data set [2] relates to Blood platelet (Collagen agglutination). As to the kind of experiment: Blood platelet agglutination inhibiting activity (collagen-induced), washed rabbit platelet suspension. It counts as cell-based, rabbit (Japanese white male rabbits). Conditions: for IC50: Oryctolagus cuniculus, Platelet, collagen 1 μg/ml, concentration suppressing agglutination to 50%, read-out: Platelet agglutination inhibiting activity ED50, Collagen agglutination; for Activity ratio, platelet agglutination inhibiting activity, Collagen agglutination: relative to prostacyclin = 1. The protocol: as §1, §2, §3, §4, §5

Another data set relates to coronary artery. As to the kind of experiment: Blood flow-increasing activity in the coronary artery, anesthetized dog. The class given is in vivo, crossbred adult dog. As to conditions: for ED50: Canis lupus familiaris, dog, near arterial injection, reactive hyperemia = 100%; for Activity ratio, blood flow-increasing activity in coronary artery: relative to prostacyclin = 1. How it is done: Blood flow-increasing activity in the coronary artery
A crossbred adult dog having a weight of from 9 to 15 kg was anesthetized with sodium Pentobarbital and subjected to thoractomy under artificial respiration. After pericardiectomy, the frontal descending branch of the left coronary artery was separated from the surrounding tissues, and a blood flow-measuring probe was attached thereto under sodium heparin treatment. The coronary blood flow was measured by using an electromagnetic flow meter. The test compound was injected into the coronary artery by near arterial injection, and the blood flow-increasing activity in the coronay artery was represented by ED50 (i.e. the dose of a test compound at which the blood flow increases by 50%, as evaluated on the basis that the blood flow increase by the reactive hyperemia caused by releasing the blood flow of the coronary artery after blocking it for 15 seconds, is evaluated to be 100%).

Another data set relates to vertebral artery. As to the kind of experiment: Blood flow-increasing activity in the vertebral artery, anesthetized dog. It counts as in vivo, crossbred adult dog. The text has this:
Blood flow-increasing activity in the vertebral artery
A made or female crossbred adult dog having a weight of from 8 to 13 kg was anesthetized by intravenous administration of sodium Pentobarbital and subjected to thoractomy along the mediam line under artificial respiration to expose the left vertebral artery. Under sodium peparin treatment, a polyethylene cannula was inserted into the vertebral artery, and a blood flow-measuring probe was attached to its other end, to which a blood circulation tube led from the left femoral artery was connected, whereby the blood flow in the vertebral artery was measured by using an electromagnetic flow meter. The test compound was injected into the vertebral artery by near arterial injection, and the blood flow-increasingactivity in the vertebral artery was represented by ED50 (i.e. the dose of a test compound at which the blood flow increases by 50%, as evaluated on the basis that the blood flow increase (representing substantially the maximum reaction) by the administration of 100 μg/kg papaverine hydrochloride into the vertebral artery, is evaluated to be 100%).

The subject of the next data set is femoral artery. Description: Blood flow-increasing activity in the femoral artery, anesthetized dog. The class given is in vivo, crossbred adult dog. As to conditions: for ED50: Canis lupus familiaris, dog, near arterial injection, papaverine hydrochloride 100 μg/kg = 100%; for Activity ratio, blood flow-increasing activity in femoral artery: relative to prostacyclin = 1. How it is done:
Blood flow-increasing activity in the femoral artery
A male or female crossbred adult dog having a weight of from 8 to 13 kg, was anesthetized by intravenous administration of sodium Pentobarbital. Then, a tracheal cannula was inserted, and artificial respiration was conducted. The blood flow in the femoral artery was measured by inserting the annula into the left femoral artery under sodium heparin treatment and providing a blood flow measuring probe at it other end, and by using an electromagnetic flow meter. The test compound was injected into the femoral artery by near arterial injection, and the blood flow-increasing activity in the femoral artery was represented by ED50 (i.e. the dose of a test compound at which the blood flow increases by 50%, as evaluated on the bais that the blood flow increase (representing substantially the maximum reaction) by the administration of 100 μg/kg of papaveline hydrochloride into the femoral artery, is evaluted to be 100%).

Data set [3] relates to diastolic blood pressure. As to the kind of experiment: Hypotensive activity, anesthetized dog. The class given is in vivo, crossbred adult dog. Conditions: for Hypotensive activity, blood pressure decrease: at 10 μg/kg i.v.; for Activity ratio, hypotensive activity: relative to prostacyclin = 1. How it is done: A male or female crossbred adult dog having a weight of from 9 to 14 kg was anesthetized by intraveous administration of sodium Pentobarbital. Then, the left carotid was exposed under artificial respiration, and the blood pressure was measured by using an electric blood pressure meter. […]

For another data set, the system named is Ethanol ulcer. As to the kind of experiment: Ethanol ulcer inhibiting activity. Conditions: rat. It counts as in vivo, Male wister rats. The protocol: Ethanol ulcer inhibiting activity
Male wister rats having a weight of from 170 to 270 g were put into individual cages and starved for 24 hours. During this starvation period, the rats were allowed to drink water freely. A test compound or PGE2 as a comparative compound was orally administered in an amount of 3, 10 or 30 μg/kg, and 30 minutes later, 1 ml of 99.5% ethanol was orally administered to each rat. One hour after the ethanol administration, each rat was filled by cervical vertebral luxation, and the stomach was taken out. A 1% formaline solution was injected into the stomach in an amount of about 8 ml, and the stomach was fixed in the formaline solution for 30 minutes. After the fixing, the stomach was severed along the greater curvature, and the mucous membrane surface of the stomach was gently washed with flowing water. Then, the total length of damages appearing on the gastric glandular portion was obtained and used as the ulcer index.
The ethanol ulcer inhibiting activity of a test compound was represented by ED50 (i.e. the dose of the test compound at which the ulcer was inhibited by 50% relative to the ulcer index of the non-treated group). To the non-treated group, the solvent was administered.

The test system of another data set is Hydrochloric acid ulcer. Description: Hydrochloric acid ulcer inhibiting activity. It counts as in vivo, wister rats. Conditions: rat, oral administration of 30 μg/kg; for inhibition in vivo at 0.03 mg/kg: 0.6N hydrochloric acid, read-out: Hydrochloric acid ulcer inhibiting activity, Inhibiting rate. How it is done: Hydrochloric acid ulcer inhibiting activity
Male wister […] having a weight of from 190 to 240 g were used. The rats were starved in the same manner as in Test Example 6, and the test compounds and PGE2 were, respectively, orally administered in an amount of 30 μg/kg, and 30 minutes later, 1 ml of 0.6N hydrochloric acid was orally administered. Thirty minutes after the hydrochloric acid administration, each rat was killed by cervical vertebral luxation. Then, the stomach was taken out and fixed, and the ulcer index was obtained, in the same manner as in Test Example 6. The hydrochloric acid ulcer inhibiting activity of a test compound was represented by the inhibiting percentage (i.e. the percentage of the ulcer index of the treated group to the ulcer index of the non-treated group). To the non-treated group, the solvent was administered.

The next data set has as its system Indomethacine ulcer. As to the kind of experiment: Indomethacine ulcer inhibiting activity. It counts as in vivo, Male wister rats. Conditions: rat; oral administration of 60 μg/kg twice. The text has this:
Indomethacine ulcer inhibiting activity
Male wister rats having a weight of from 210 to 270 g were used. The rats were starved in the same manner as in Test Example 6. […] Three hours after the indomethacine administration, the test compound or PGE2 was again orally administered in the same amount. Six hours after the first administration of indomethacine, each rat was killed by cervical bertebral luxation. The stomach was taken out and fixed, and the ulcer index was obtained, in the same manner as in Test Example 6.
The indomethacine ulcer inhibiting activity of a test compound was represented by the inhibiting percentage (i.e. the inhibiting percentage of the ulcer index of the treated group to the ulcer index of the non-treated group). To the non-treated group, the solvent was administered.

The next data set relates to ulcer. As to the kind of experiment: Anti-ulcer activity (general statement). As to conditions: compared with typical PG such as PGE2. It counts as in vivo, animals. The text has this: On the basis of this discovery, a further research has been made for the application to the prevention and treatment of digestive organ ulcers, and have accomplished the present invention.

Data set [4] deals with blood flow of various organs. As to the kind of experiment: Blood flow increasing activity in various organs (general statement). Conditions: in vivo.
For data set [5], the system named is diastolic blood pressure. Conditions: background statement; cited from earlier work.
The conditions of data set [6]: background; cited from earlier work.
[7] abbreviates: oral administration of 30 μg/kg.

`CCC#CCC(C)[C@H](O)/C=C/[C@@H]1[C@H]2CCC(CCCC(=O)O)=C[C@H]2C[C@H]1O` (stereo partly drawn) [(b), 3-(3-carboxypropyl)-7-exo-(3α-hydroxy-4,8-dimethyl-trans-1-octen-6-ynyl)-8-endo-hydroxy-cis-bicyclo[4,3,0]nona-2-ene]: in data set [1], the IC50 was determined as 77 nM and the “Activity ratio, platelet agglutination inhibiting activity, ADP agglutination” value is on record as 1/27. Besides, in data set [2], the IC50 amounted to 44 nM and the “Activity ratio, platelet agglutination inhibiting activity, Collagen agglutination” value is 1/12. For the same compound, in the data set on coronary artery, the ED50 (commonly the dose that gives a 50% effect, or the effect in half of the subjects) was found to be 1.2 µg/kg and the “Activity ratio, blood flow-increasing activity in coronary artery” value is reported as 1/120. For the same compound, the ED50 in the data set with vertebral artery (Canis lupus familiaris, dog, near arterial injection, papaverine hydrochloride 100 μg/kg = 100%) came out at 0.75 µg/kg. The “Activity ratio, blood flow-increasing activity in vertebral artery” value in the data set on vertebral artery (relative to prostacyclin = 1) is given as 1/17. In the data set with femoral artery, the ED50 was found to be 0.35 µg/kg and the “Activity ratio, blood flow-increasing activity in femoral artery” value is listed as 1/15. In addition, the “Hypotensive activity, blood pressure decrease” value in the data set with diastolic blood pressure [3] (dog) was 27.9 mmHg. For the same compound, the “Activity ratio, hypotensive activity” value in the data set with diastolic blood pressure [3] is “about 1/135”. In the data set with Ethanol ulcer (po, P.O., 30 minutes before 99.5% ethanol), it took a dose of 2.79 µg/kg to reach the 50% effect level (ED50). The inhibition in vivo at 0.03 mg/kg in the data set with Hydrochloric acid ulcer amounted to 54.8%. In the data set on Indomethacine ulcer, the “Indomethacine ulcer inhibiting activity, Inhibiting rate” value turned out to be 99.4%. Besides, the “Anti-ulcer activity (in words)” value in the data set on ulcer is listed as “comparable or superior to typical PG having anti-ulcer activities, such as PGE2”. The “Activity to increase the blood flow (in words)” value in data set [4] was “activity to increase the blood flow of the vertebral artery, coronary artery and femoral artery”.
Consider `CCCCC[C@H](O)/C=C/[C@@H]1[C@H]2CCC(C=CCCC(=O)O)=C[C@H]2C[C@H]1O` [(c), 3-(4-carboxy-1-butenyl)-7-exo-(3α-hydroxy-trans-1-octenyl)-8-endo-hydroxy-cis-bicyclo[4,3,0]nona-2-ene], for which, in [1], the IC50 came to 50 nM and the “Activity ratio, platelet agglutination inhibiting activity, ADP agglutination” value is listed as 1/17. Moreover, in [2], the IC50 was 73 nM and the “Activity ratio, platelet agglutination inhibiting activity, Collagen agglutination” value is given as 1/21. Moreover, in the data set on coronary artery, the ED50 came to 2.1 µg/kg and the “Activity ratio, blood flow-increasing activity in coronary artery” value is listed as 1/210. In addition, the “Blood flow increase in vertebral artery” value with vertebral artery (dog, at 3 μg/kg, near arterial injection) was 36.9%. Also, in the data set with femoral artery, it took a dose of 0.56 µg/kg to reach the 50% effect level (ED50) and the “Activity ratio, blood flow-increasing activity in femoral artery” value is reported as 1/23. Also, the “Hypotensive activity, blood pressure decrease” value in the data set on diastolic blood pressure [3] (dog) was 27.9 mmHg. Also, the “Activity ratio, hypotensive activity” value in the data set with diastolic blood pressure [3] is “about 1/125 and 1/125”. Further, the Ethanol ulcer inhibition in the data set on Ethanol ulcer (setting [7]) stood at 31.7%. Further, the inhibition in vivo at 0.03 mg/kg with Hydrochloric acid ulcer is 13.5%. In addition, the “Indomethacine ulcer inhibition (in words)” value with Indomethacine ulcer is “Certain inhibition”. Besides, in data set [4], the “Activity to increase the blood flow (in words)” value was “activity to increase the blood flow of various organs to a proper extent”.
Turning to `CCCCC[C@H](O)/C=C/[C@@H]1[C@H]2C/C(=C/CCCC(=O)O)O[C@H]2C[C@H]1O` [Prostacyclin, (5Z,13E)-(9α,11α,15S)-6,9-epoxy-11,15-dihydroxyprosta-5,13-diene acid], the IC50 in data set [1] was found to be 2.9 nM. For the same compound, in the data set with diastolic blood pressure [3] (Canis lupus familiaris, iv, read-out: Hypotensive activity ED50 (dose reducing diastolic blood pressure by 50 mmHg), heading: Hypotensive activity ED50, dog, femoral vein, Table 1), the ED (50 mmHg) was found to be 0.24 µg/kg. The “Ethanol ulcer inhibition (in words)” value with Ethanol ulcer (setting [7]) is recorded as “No inhibiting activity”. Further, in the data set on Hydrochloric acid ulcer, the “Hydrochloric acid ulcer inhibition (in words)” value is listed as “No inhibiting activity”. Further, the “Hypotensive activity of prostacyclin (in words)” value in the data set on diastolic blood pressure [5] was “remarkable hypotensive activities”. Also, the “Chemical stability (in words)” value in [6] was “very unstable”.
